# From US20240327415A1, “Multicomponent Complexes, Including Salts, Crystalline Forms, and Hydrates and Solvates of ENT1 Inhibitors” (iTeos Belgium SA, priority 2023, published 2024)
# Marks after values point to notes of the source that are not given here.
# Assays:
# ENT1 = target: T1, ENT1 (Homo sapiens, UniProt Q99808); experiment: ENT1 activity: intracellular uptake of 5-Ethynyl-Uridine (5EU) in whole blood, CD19 positive cells, flow cytometry; assay type: cell-based; conditions: 5EU 60 min at 37° C.
# T1 construct: endogenous in cells; host or cells: CD19-positive cells (B cells) in whole blood from healthy donors
# T1 sequence (Q99808 1-456): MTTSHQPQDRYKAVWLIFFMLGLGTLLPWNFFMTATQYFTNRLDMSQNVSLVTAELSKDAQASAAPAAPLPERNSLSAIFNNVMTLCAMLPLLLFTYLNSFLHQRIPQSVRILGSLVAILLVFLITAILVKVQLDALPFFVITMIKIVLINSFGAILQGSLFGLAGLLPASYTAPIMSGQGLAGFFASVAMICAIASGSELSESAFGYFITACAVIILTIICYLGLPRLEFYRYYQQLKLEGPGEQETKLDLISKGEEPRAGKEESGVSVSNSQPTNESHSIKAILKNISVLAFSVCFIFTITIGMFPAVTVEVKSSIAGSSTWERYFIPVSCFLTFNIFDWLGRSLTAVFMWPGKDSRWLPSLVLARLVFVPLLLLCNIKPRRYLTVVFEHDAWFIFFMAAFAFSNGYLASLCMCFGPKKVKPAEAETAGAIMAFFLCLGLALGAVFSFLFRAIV
# Description: Example 20-ENT1 Activity of Crystalline Form 2 Compound 1 di(hydrogen sulfate) trihydrate compared to Compound 1 (free base)-Initial and after Six-Month Storage: (1) Initial time: Whole blood from 8 healthy donors was incubated with 5-Ethynyl-Uridine (5EU, CAS #: 69075-42-9, Jena Bioscience) for 60 min at 37° C., in the absence or presence of freshly suspended 1 μM Compound 1 (free base) or 1 μM Form 2 Compound 1 di(hydrogen sulfate) trihydrate. Intracellular uptake of 5EU through ENT1 transporters was assessed by standard flow cytometry and ENT1 activity was determined.
# In FIG. 101, the data are expressed as % of ENT1 activity in untreated CD19 cells, arbitrary set at 100%, and are the means±SD of three independent experiments. Statistical analysis was performed using one-way analysis of variance (ANOVA) followed by Tukey's post hoc analysis with Prism 10.1.2 software (GraphPad Software). *: p<0.0001 vs. untreated B cells; ns: non-significant.
# (2) Six months: Compound stability was evaluated on suspended solutions of Compound 1 (free base) or Form 2 Compound 1 di(hydrogen sulfate) trihydrate that were stored at −20° C. for 6 months. On the day of the experiment, whole blood from 3 healthy donors was incubated with 5-Ethynyl-Uridine (5EU, CAS #: 69075-42-9, Jena Bioscience) for 60 min at 37° C., in the absence or presence of either 1 μM Compound 1 (free base) or 1 μM Form 2 Compound 1 di(hydrogen sulfate) trihydrate of 6-month-old solutions. Intracellular uptake of 5EU through ENT1 transporters was assessed by standard flow cytometry and ENT1 activity was determined.
# In FIG. 102, the data are expressed as % of ENT1 activity in untreated CD19 cells, arbitrary set at 100%, and are the means±SD. Statistical analysis was performed using two-way analysis of variance (ANOVA) with Prism 10.1.2 software (GraphPad Software). *: p<0.05 vs. untreated B cells; **: p<0.01 vs. untreated B cells; ns: non-significant.
# [1] = salt screen, XRPD of damp, dried and 40° C./75% RH stored samples (Salt Preparation Methods 1 and 2); assay type: physicochemical; set-up: key to XRPD Analysis Damp/Dry: A = amorphous; Evap. = isolated via evaporation
# Outline: (§1)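 Free base (~25 mg) was stirred at 40 °C with 1.0 or 2.0 equiv. acid in the test solvent, then temperature-cycled 40–5 °C (0.1 °C/min, 1 h holds) with anti-solvent addition as needed. Solids were isolated at 5 °C and run by XRPD damp, after vacuum drying at ~40 °C for ~17–91 h, and after 24–48 h at 40 °C/75% RH.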
# [2] = as above; assay type: physicochemical; set-up: key: A = amorphous; PC = poorly crystalline; *= predominantly; 1 = Form 1 Compound 1 benzoate; 2 = Form 2 Compound 1 benzoate; 3 = Form 3 Compound 1 benzoate; conditions: Benzoic acid, 1 equiv.
# Description: (§2) Salt Preparation Method 1: Approximately 25 mg of Compound 1 (free base) was weighed out into 1.5 mL screw-cap vials and a stirrer bar was added. For solid counterions, the appropriate amount of acid (1.0 or 2.0 equiv.) was weighed into separate 1.5 mL screw-cap vials. 100 μL of the appropriate solvent system was added to both the Compound 1 and the solid counterions. Stock solutions of liquid counterions were prepared, such that 100 μL contained 1.0 or 2.0 equiv. of acid. See counterion and solvent lists in Table 60 and Table 61 respectively.
# (§3) The samples were stirred at 40° C. for 5-10 min and then the acid solutions were added to Compound 1, rinsing out the transfer vial with a further 50 μL of solvent. […] Experiments were temperature cycled between 40° C. and 5° C. (1 h hold; 0.1° C./min ramp/cool) for ca. 24-68 h. Anti-solvent addition (ASA) was carried out to slurries at 5° C. then experiments were heated to 30° C. over 1 h. ASA was carried out at 30° C. or 40° C. where clear solutions or gums were observed.
# (§4) Temperature cycling was then continued for ca. 16-69 h, followed by further ASA and temperature cycling if required. Material was isolated at 5° C. and analyzed damp by XRPD. All isolated material was dried under vacuum at ca. 40° C. for ca. 17-91 h then re-analyzed by XRPD. The XRPD plate was stored at 40° C./75% RH for 24-48 h and then samples re-analyzed. Solutions were stored uncapped at ambient temperature to evaporate. Any residual solids were analyzed by XRPD.
# (§5) Salt Preparation Method 2: The general procedure adopted in preparing the potential salts is outlined below. A known mass of Compound 1 (free base) and a known volume of the appropriate solvent system were added to 20 mL scintillation vials. The required mol. equiv. of the appropriate counterions were added to the vials as solutions or slurries in the corresponding solvent system.
# (§6) The experiments were stirred at 40° C. for ca. 1 h, and then temperature cycled between 40° C. and 5° C. with 0.1° C./min ramp and 1 h hold between each step. Anti-solvent additions and subsequent slurrying at 5° C. were employed in order to facilitate crystallization. […] The damp and dried solids were subsampled and analyzed by XRPD. Where applicable, the dried solids were stored at 40° C./75% RH for 24-48 h in order to improve the crystallinity and/or facilitate solid form conversion to the desired form.
# [3] = as above; assay type: physicochemical; set-up: key: A = amorphous; Evap. = isolated via evaporation
# Outline: as §1
# [4] = hydration mapping studies (slurries at different water activities, Example 17); assay type: physicochemical; set-up: key to XRPD, hydration studies - dried samples: A: amorphous; Crystalline Form 10 mono(hydrogen sulfate)
# Description: Example 17—Hydration Mapping Studies-Crystalline Form 2 Compound 1 di(hydrogen sulfate) trihydrate, Crystalline Form 3 Compound 1 di(hydrogen sulfate), and Blend: The effects of different water activities on crystalline Form 2 Compound 1 di(hydrogen sulfate) trihydrate, crystalline Form 3 Compound 1 di(hydrogen sulfate) and a blend of the two were investigated. The “blend” was prepared by mixing crystalline Form 2 Compound 1 di(hydrogen sulfate) trihydrate and crystalline Form 3 Compound 1 di(hydrogen sulfate) in a 1:1 ratio. To the vials containing the required solid material, the appropriate solvent system was added to form slurries. The slurry samples were stirred at the required temperatures during and after the solvent addition. Where dissolution was observed post-solvent addition, additional solid was added to re-saturate the sample. After stirring at the required temperature for 48 hours, the residual solids left in the vials were analyzed by XRPD to assess the solid forms. The analyzed samples were then dried on the XRPD plate under reduced pressure at 40° C. for 24 hr. The dried samples were analyzed by XRPD.
# [5] = salt screen, XRPD of damp, dried and 40° C./75% RH stored samples (Salt Preparation Methods 1 and 2); assay type: physicochemical; set-up: key: A = amorphous; PC = poorly crystalline; 1 = Form 1 Compound 1 hydrogen phosphate; 2 = Form 2 Compound 1 hydrogen phosphate; 3 = Form 3 Compound 1 hydrogen phosphate; 4 = Form 4 Compound 1 hydrogen phosphate; conditions: Phosphoric acid, 1 equiv.
# Description: as §2, §3, §4, §5, §6
# [6] = as above; assay type: physicochemical; set-up: key: A = amorphous; 1 = Form 1 Compound 1 hydrogen chloride; PC = poorly crystalline; conditions: AS Heptane
# Description: as §2, §3, §4, §5, §6
# [7] = Benzoic acid, 1 equiv., Ethanol, AS Heptane
# [8] = Benzoic acid, 1 equiv., MEK, AS Heptane
# [9] = Benzoic acid, 1 equiv., THF, AS Heptane
# [10] = Phosphoric acid, 1 equiv., Ethyl acetate
# [11] = Phosphoric acid, 1 equiv., Acetonitrile, AS tBME
# [12] = Phosphoric acid, 1 equiv., IPA:H2O (75:25% v/v), AS tBME
# [13] = Hydrochloric acid, 2 equiv., Ethanol*
# [14] = Hydrochloric acid, 2 equiv., Acetonitrile, AS tBME
# [15] = Hydrochloric acid, 2 equiv., Ethyl acetate, AS Heptane
# [16] = Hydrochloric acid, 2 equiv., IPA:H2O (75:25% v/v), AS tBME
# [17] = Hydrochloric acid, 2 equiv., MEK, AS Heptane
# [18] = Hydrochloric acid, 2 equiv., THF, AS Heptane
smiles,measurement,setting,value
"COc1cc(C(=O)O[C@@H]2CCCOc3cc(cc(OC)c3OC)C(=O)NCCCN3CCCN(CC2)CC3)cc(OC)c1OC [Compound 1, (16R)-9,10-dimethoxy-6-oxo-12-oxa-1,5,19-triazatricyclo[17.3.2.1^7,11]pentacosa-7(25), 8,10-trien-16-yl 3,4,5-trimethoxybenzoate]",decrease of ENT1 activity compared to untreated CD19 positive cells,"ENT1; 1 μM of solutions stored at −20° C. for 6 months, whole blood from 3 healthy donors",No significant effect
same,decrease of ENT1 activity compared to untreated CD19 positive cells,"ENT1; 1 μM, freshly suspended, whole blood from 8 healthy donors",49.8%
"O=C(O)c1ccccc1 [Benzoic acid, 1 equiv.]",XRPD Analysis Damp/Dry,"[1]; Benzoic acid, 1 equiv., Acetonitrile, AS BME, (evap.)",A (evap.)
same,XRPD Analysis 40° C. 75% RH,[1]; [7],2 + 3
same,XRPD Analysis Damp,[1]; [7],2*
same,XRPD Analysis 40° C. 75% RH,"[1]; Benzoic acid, 1 equiv., IPA:H2O (75:25% v/v), AS tBME",2 + 3
same,XRPD Analysis 40° C. 75% RH,[1]; [8],1 + 3
same,XRPD Analysis Damp,[1]; [8],1*
same,XRPD Analysis Dry,[1]; [8],"1, PC"
same,XRPD Analysis Damp,[1]; [9],1 + 2
same,XRPD Analysis 40° C. 75% RH,"[2]; Ethyl acetate, AS Heptane",1
same,XRPD Analysis Damp,"[2]; Ethyl acetate, AS Heptane",1
same,XRPD Analysis Dry,"[2]; Ethyl acetate, AS Heptane",1
same,XRPD Analysis Damp,"[2]; IPA:H2O (75:25% v/v), AS tBME",2
same,XRPD Analysis Dry,"[2]; IPA:H2O (75:25% v/v), AS tBME",2
same,XRPD Analysis 40° C. 75% RH,"[2]; THF, AS Heptane",3
same,XRPD Analysis Dry,[3]; [7],A
same,XRPD Analysis Dry,[3]; [9],A
COc1cc(C(=O)O[C@@H]2CCCOc3cc(cc(OC)c3OC)C(=O)NCCCN3CCCN(CC2)CC3)cc(OC)c1OC.O=S(=O)(O)O.O=S(=O)(O)O [blended material],"XRPD, hydration studies - dried samples","[4]; 50° C., Acetonitrile:Water, aw 0.9, dried 40° C. reduced pressure 24 hr",M10
same,solid form by XRPD after slurrying,"[4]; acetonitrile:water solvent systems with aw≤0.5, 48 hours",some crystalline Form 3 Compound 1 di(hydrogen sulfate) was retained
same,solid form by XRPD after slurrying,"[4]; acetonitrile:water systems with aw>0.5, 48 hours",Crystalline Form 2 Compound 1 di(hydrogen sulfate) trihydrate was observed
same,solid form by XRPD after slurrying,"[4]; all the 2-propanol:water solvent systems, 48 hours",Crystalline Form 2 Compound 1 di(hydrogen sulfate) trihydrate was also observed
"O=P(O)(O)O [Phosphoric acid, 1 equiv.]",XRPD Analysis 40° C. 75% RH,"[5]; Acetonitrile, AS tBME",4
same,XRPD Analysis 40° C. 75% RH,"[5]; Ethanol, AS Heptane",1
same,XRPD Analysis Damp,"[5]; Ethanol, AS Heptane",1
same,XRPD Analysis Dry,"[5]; Ethanol, AS Heptane",1
same,XRPD Analysis 40° C. 75% RH,"[5]; Ethyl acetate, AS Heptane",2
same,XRPD Analysis 40° C. 75% RH,"[5]; MEK, AS Heptane",2
same,XRPD Analysis Damp,"[5]; MEK, AS Heptane",3
same,XRPD Analysis Dry,"[5]; MEK, AS Heptane",2
same,XRPD Analysis 40° C. 75% RH,"[5]; THF, AS Heptane",1
same,XRPD Analysis Damp,"[5]; THF, AS Heptane",1
same,XRPD Analysis Dry,"[5]; THF, AS Heptane",1
same,XRPD Analysis Damp,[6]; [10],PC
same,XRPD Analysis Dry,[6]; [10],PC
same,XRPD Analysis Damp,[3]; [11],A
same,XRPD Analysis Dry,[3]; [11],A
same,XRPD Analysis 40° C. 75% RH,[3]; [12],A
same,XRPD Analysis Damp,[3]; [12],A
same,XRPD Analysis Dry,[3]; [12],A
"Cl [Hydrochloric acid, 2 equiv.]",XRPD Analysis 40° C. 75% RH,"[1]; Hydrochloric acid, 2 equiv., Ethanol*, AS Heptane",1 (PC)
same,XRPD Analysis Damp,[6]; [13],1
same,XRPD Analysis Dry,[6]; [13],1
same,XRPD Analysis 40° C. 75% RH,[3]; [14],A
same,XRPD Analysis Damp,[3]; [14],A
same,XRPD Analysis Dry,[3]; [14],A
same,XRPD Analysis 40° C. 75% RH,[3]; [15],A
same,XRPD Analysis Damp,[3]; [15],A
same,XRPD Analysis Dry,[3]; [15],A
same,XRPD Analysis 40° C. 75% RH,[3]; [16],A
same,XRPD Analysis Damp,[3]; [16],A
same,XRPD Analysis Dry,[3]; [16],A
same,XRPD Analysis 40° C. 75% RH,[3]; [17],A
same,XRPD Analysis Damp,[3]; [17],A
same,XRPD Analysis Dry,[3]; [17],A
same,XRPD Analysis 40° C. 75% RH,[3]; [18],A
same,XRPD Analysis Damp,[3]; [18],A
same,XRPD Analysis Dry,[3]; [18],A
